Data taken from article PMC10794144, “A novel antibiotic class targeting the lipopolysaccharide transporter” (Nature, 2024).
Where two headings read alike, the source gives them in different places.

Experiments:
Adenosine A1 respetor = target: T1, Adenosine A1 respetor (Homo sapiens, UniProt P30542); test: Off-target screening (CEREP); assay type: binding; settings: read-out: percent inhibition
T1 construct: purchased Eurofins CEREP SA
T1 sequence (P30542 1-326): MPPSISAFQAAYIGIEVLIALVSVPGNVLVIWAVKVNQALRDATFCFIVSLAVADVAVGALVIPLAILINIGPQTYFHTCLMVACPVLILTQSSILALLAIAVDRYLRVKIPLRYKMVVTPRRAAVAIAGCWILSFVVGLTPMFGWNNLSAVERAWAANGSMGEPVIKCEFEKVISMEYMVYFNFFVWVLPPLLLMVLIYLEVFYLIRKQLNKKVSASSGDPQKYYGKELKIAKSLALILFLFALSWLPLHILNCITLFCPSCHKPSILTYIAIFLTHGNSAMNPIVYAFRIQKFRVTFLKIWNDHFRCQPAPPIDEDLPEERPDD
How it was run: (§1)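 Percent inhibition is reported, relative to radioligand signal in binding formats or to control enzymatic activity in enzyme formats. Each compound was tested once at 10 µM, in duplicate.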

Beta2-adrenoreceptor = target: T2, Beta2-adrenoreceptor (Homo sapiens, UniProt P07550); test: Off-target screening (CEREP); assay type: binding; settings: read-out: percent inhibition
T2 construct: purchased Eurofins CEREP SA
How it was run: as §1

Estrogen receptor alpha = target: T3, Estrogen receptor alpha (Homo sapiens, UniProt P03372); test: Off-target screening (CEREP); assay type: binding; settings: read-out: percent inhibition
T3 construct: purchased Eurofins CEREP SA
How it was run: as §1

Histamine H2 receptor = target: T4, Histamine H2 receptor (Homo sapiens, UniProt P25021); test: Off-target screening (CEREP); assay type: binding; settings: read-out: percent inhibition
T4 construct: purchased Eurofins CEREP SA
How it was run: as §1

Mu opioid receptor = target: T5, Mu opioid receptor (Homo sapiens, UniProt P35372); test: Off-target screening (CEREP); assay type: binding; settings: read-out: percent inhibition
T5 construct: purchased Eurofins CEREP SA
How it was run: as §1

[1] = target: T6, Norepinephrine transporter (Homo sapiens, UniProt P23975); test: Off-target screening (CEREP); assay type: binding; settings: read-out: percent inhibition
T6 construct: purchased Eurofins CEREP SA
How it was run: as §1

A. baumannii = test: Bacterial phenotypic fingerprint profiling; assay type: cell-based, Acinetobacter baumannii; settings: random forest model
Experimental: Sample preparation and analysis was conducted as previously described[26] for A. baumannii, with the generated and analysed dataset consisting of three independent experiments, n = 3, as the only modification to the protocol.
For the random forest analysis data proximity analysis from 4x and 8x LOED are pooled and the number of datapoints are reduced by down sampling to be equal for all reference conditions the maximal projection of the analysis. b, In the right panel an out-of-bag validation of the random forest classification model is indicated for the reference compounds. […] The degree of frequency of matching prediction correspond to the length of the individual bar segment, where a longer segment represents a higher similarity. […] Source Data

[2] = Five-day repeat dose tolerability study; assay type: in vivo, rat; settings: for Clinical observations: male Wistar rats, n = 4; for Clinical chemistry / Coagulation / Haematology: 5 days; for MTD: slow IV once daily for 5 days
Experimental: Assessment of tolerability was based on mortality, in-life observations, body weight, food consumption and clinical pathology during the in-life phase. Moreover, gross pathology and histopathology were performed at unscheduled or scheduled euthanasia on day 6.

[3] = tested on: Ca2+ channel (diltiazem site); test: Off-target screening (CEREP); assay type: binding, rat; settings: 10 µM, duplicates
Experimental: (§2) Supplementary Table 1 │ Off-target activity screening f or MCP compou nds […]
(§3) The assays given in the table above were conducted at Eurofins CEREP S A (Celle-Lévescault, France) and were run as single point measurements in duplicates in the presence of 10 µ M of the test compound and reported as percent inhibition of the radioligand signal or control enzymatic activity. n.d., not

[4] = tested on: GABA Cl- channel receptor; test: Off-target screening (CEREP); assay type: binding, rat; settings: 10 µM, duplicates
Experimental: as §2, §3

PCP receptor = test: Off-target screening (CEREP); assay type: binding, rat; settings: 10 µM, duplicates
Experimental: as §2, §3

[5] = 0.6 mg/kg slow IV once daily for 5 days
[6] = 6 mg/kg slow IV once daily for 5 days

T5 sequence (P35372 whole entry): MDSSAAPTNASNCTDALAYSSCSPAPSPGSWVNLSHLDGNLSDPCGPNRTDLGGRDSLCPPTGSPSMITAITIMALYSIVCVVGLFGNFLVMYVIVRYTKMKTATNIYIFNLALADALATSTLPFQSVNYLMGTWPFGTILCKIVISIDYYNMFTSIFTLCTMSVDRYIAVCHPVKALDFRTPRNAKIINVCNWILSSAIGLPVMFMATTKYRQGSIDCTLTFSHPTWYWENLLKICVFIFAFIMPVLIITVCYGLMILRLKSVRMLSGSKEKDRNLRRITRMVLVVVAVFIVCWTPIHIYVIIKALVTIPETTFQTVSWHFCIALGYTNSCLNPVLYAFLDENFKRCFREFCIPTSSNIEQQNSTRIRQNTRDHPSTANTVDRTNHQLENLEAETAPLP
T4 sequence (P25021 whole entry): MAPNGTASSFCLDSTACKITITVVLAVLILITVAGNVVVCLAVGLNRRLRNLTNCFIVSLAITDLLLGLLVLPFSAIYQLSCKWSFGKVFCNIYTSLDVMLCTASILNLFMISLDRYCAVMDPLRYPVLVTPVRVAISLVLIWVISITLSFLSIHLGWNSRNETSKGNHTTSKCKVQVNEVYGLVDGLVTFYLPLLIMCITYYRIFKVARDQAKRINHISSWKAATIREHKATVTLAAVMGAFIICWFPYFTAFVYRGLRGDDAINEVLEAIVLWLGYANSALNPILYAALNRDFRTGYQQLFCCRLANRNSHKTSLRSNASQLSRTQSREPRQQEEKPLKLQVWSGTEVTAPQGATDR
T2 sequence (P07550 whole entry): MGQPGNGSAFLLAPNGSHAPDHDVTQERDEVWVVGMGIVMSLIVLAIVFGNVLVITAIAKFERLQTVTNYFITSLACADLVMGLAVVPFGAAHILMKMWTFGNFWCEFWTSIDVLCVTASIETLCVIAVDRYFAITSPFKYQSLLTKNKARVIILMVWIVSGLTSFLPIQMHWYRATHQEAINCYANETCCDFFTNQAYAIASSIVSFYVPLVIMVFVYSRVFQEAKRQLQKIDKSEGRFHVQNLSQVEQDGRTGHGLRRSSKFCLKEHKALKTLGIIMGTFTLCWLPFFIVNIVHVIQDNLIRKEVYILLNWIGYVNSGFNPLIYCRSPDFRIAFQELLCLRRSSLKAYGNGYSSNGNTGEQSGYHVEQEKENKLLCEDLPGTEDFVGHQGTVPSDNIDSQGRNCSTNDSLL
T3 sequence (P03372 whole entry): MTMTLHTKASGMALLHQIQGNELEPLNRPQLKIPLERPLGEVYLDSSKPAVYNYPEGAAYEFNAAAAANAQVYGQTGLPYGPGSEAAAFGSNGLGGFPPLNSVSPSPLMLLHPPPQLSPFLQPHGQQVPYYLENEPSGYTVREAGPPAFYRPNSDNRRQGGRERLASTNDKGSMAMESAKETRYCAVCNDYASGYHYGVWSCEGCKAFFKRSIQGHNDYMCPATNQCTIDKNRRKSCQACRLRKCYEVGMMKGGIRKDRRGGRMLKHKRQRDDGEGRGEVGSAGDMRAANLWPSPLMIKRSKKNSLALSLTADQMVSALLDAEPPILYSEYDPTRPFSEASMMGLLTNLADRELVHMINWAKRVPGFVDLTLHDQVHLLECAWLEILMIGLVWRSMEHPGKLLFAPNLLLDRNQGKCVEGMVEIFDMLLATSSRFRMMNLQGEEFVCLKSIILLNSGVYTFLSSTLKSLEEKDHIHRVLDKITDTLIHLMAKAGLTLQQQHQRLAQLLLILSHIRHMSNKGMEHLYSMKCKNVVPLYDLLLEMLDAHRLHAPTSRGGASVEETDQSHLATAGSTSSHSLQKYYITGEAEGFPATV
T6 sequence (P23975 whole entry): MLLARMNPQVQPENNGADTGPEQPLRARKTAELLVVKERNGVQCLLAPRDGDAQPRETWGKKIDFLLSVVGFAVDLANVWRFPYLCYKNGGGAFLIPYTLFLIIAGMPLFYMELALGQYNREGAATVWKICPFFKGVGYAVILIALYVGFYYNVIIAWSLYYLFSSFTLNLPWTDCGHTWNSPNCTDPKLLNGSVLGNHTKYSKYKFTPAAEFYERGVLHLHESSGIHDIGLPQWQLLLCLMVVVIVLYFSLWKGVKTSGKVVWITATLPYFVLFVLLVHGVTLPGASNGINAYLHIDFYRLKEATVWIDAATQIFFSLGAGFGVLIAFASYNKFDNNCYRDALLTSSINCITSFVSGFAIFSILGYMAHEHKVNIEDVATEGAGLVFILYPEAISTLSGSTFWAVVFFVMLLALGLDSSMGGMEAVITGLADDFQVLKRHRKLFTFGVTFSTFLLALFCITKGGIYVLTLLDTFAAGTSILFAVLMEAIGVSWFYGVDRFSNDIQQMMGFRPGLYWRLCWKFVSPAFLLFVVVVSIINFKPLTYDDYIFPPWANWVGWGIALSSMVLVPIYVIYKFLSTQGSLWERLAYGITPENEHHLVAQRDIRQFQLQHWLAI

Compound	inhibition at 10 µM (Adenosine A1 respetor; 10 µM, duplicates) [%]	inhibition at 10 µM (Beta2-adrenoreceptor; 10 µM, duplicates) [%]	inhibition at 10 µM (Estrogen receptor alpha; 10 µM, duplicates) [%]	inhibition at 10 µM (Histamine H2 receptor; 10 µM, duplicates) [%]	inhibition at 10 µM (Mu opioid receptor; 10 µM, duplicates) [%]	inhibition at 10 µM ([1]; 10 µM, duplicates) [%]	Similarity towards RO7202110 (A. baumannii) [%]	Clinical observations [2, 5]	Clinical observations [2, 6]	Clinical chemistry ([2]; rats, 0.6 mg/kg IV)	Coagulation ([2]; rats, 0.6 mg/kg IV)	Haematology ([2]; rats, 0.6 mg/kg IV)	Clinical chemistry ([2]; rats, 6 mg/kg IV)	Coagulation ([2]; rats, 6 mg/kg IV)	Haematology ([2]; rats, 6 mg/kg IV)	MTD ([2]; rats) [mg/kg]	inhibition at 10 µM (Adenosine A1 respetor) [%]	percent inhibition [3] [%]	percent inhibition [4] [%]	percent inhibition (PCP receptor) [%]	also measured
CN1C(=O)[C@H](CCCN)NC(=O)[C@H](CCCN)NCc2ccccc2Sc2ccccc2CNC(=O)[C@@H]1Cc1c[nH]c2ccccc12 [RO7036668]	1	3	24	12	63	43	–	–	–	–	–	–	–	–	–	–	–	–	–	–	–
CN1C(=O)[C@H](CCCCN)NC(=O)[C@H](CCCN)NCc2cccnc2Sc2c(Cl)ccc(Cl)c2CNC(=O)[C@@H]1Cc1c[nH]c2ccccc12 [RO7075573]	–	–	–	–	–	–	> 70	Slightly discolored tail after dosing	Slightly discolored tail after dosing, red extremities on D2 after dosing, prone posture, rolling gait, hypoactivity, laboured respiration, reduced food consumption – euthanized for humane reasons D2	No relevant changes	No change	No change	Decreased HDL, triglyceride, cholesterol. Increased GLDH, AST and ALAT, CK, BUN, creatine, phosphorus, haptoglobin	Decreased prothrombin time and increased aPTT	Decrease in haemoglobin and haematocrit, increase in neutrophils	0.6	-10	-1	-9	-10	Decrease in lipid parameters (cholesterol, triglycerides, HDL) ([2]; rats, after intravenous administration): > 40%; inhibition at 10 µM (Beta2-adrenoreceptor): -7%; inhibition at 10 µM (Estrogen receptor alpha): -3%; inhibition at 10 µM (Histamine H2 receptor): 11%; inhibition at 10 µM (Mu opioid receptor): 21%; inhibition at 10 µM [1]: 1%
CN1C(=O)[C@H](CCCCN)NC(=O)[C@H](CCCN)NCc2cccnc2Sc2c(Cl)ccc(-c3ccc(C(=O)O)cc3)c2CNC(=O)[C@@H]1Cc1c[nH]c2ccccc12 [RO7202110]	1	-11	-7	3	26	14	–	–	–	–	–	–	–	–	–	–	–	2	-1	9	–
CN1C(=O)[C@H](CCCCN)NC(=O)[C@H](CCCN)NCc2cccnc2Sc2cccc(-c3ccc(C(=O)O)cc3)c2CNC(=O)[C@@H]1Cc1c[nH]c2ccccc12 [zosurabalpin]	–	–	–	–	–	–	> 70	Transiently discolored tail after dosing	Transiently discolored tail after dosing, body weight loss	No relevant changes	No change	No change	Minimally increased BUN, creatine. Minimally decreased phosphorus	No change	No change	6	-7	-11	1	-24	inhibition at 10 µM (Beta2-adrenoreceptor): 6%; inhibition at 10 µM (Estrogen receptor alpha): 7%; inhibition at 10 µM (Histamine H2 receptor): -2%; inhibition at 10 µM (Mu opioid receptor): 4%; inhibition at 10 µM [1]: 12%
